Experimental data from US20090298077A1, “ASSAY FOR MEASUREMENT OF APURINIC/APYRIMIDINIC (AP) SITES AND FOR SCREENING AP-SITE REACTIVE COMPOUNDS” (priority 2006, published 2009).
Values joined by “and” are separate entries in the source; they are usually repeats but may differ in a detail not shown here. Identical values can stand only once.

What was measured:
Type in all cases: binding, calf
AP-DNA [1] = assay: FARP AP-site assay: screening of MX-like compounds in competition with FARP
Procedure: (§1) 100 μL of 5 μM FARP in phosphate buffer (10 mM, pH 7.0) was added to 200 μL phosphate buffer (10 mM, pH 7.0) containing 10 μg of DNA extracted from cells, individual AP-DNA standard (10, 20, 40, 80, 160, 320, and 640 nM AP), and blank AP-DNA control, respectively. After vortexing, the reaction was allowed to proceed at room temperature for 15 min. At the end of the reaction 200 μL ammonium acetate (7.5M) and 1000 μL ice-cold ethanol (100%) were added. The solution was mixed gently by inverting the tube before keeping it at −20° C. for 30 min. Each tube was centrifuged at 4° C. and 12,000 g for 10 min. The supernatant was poured out carefully so that no loss of FARP-AP-DNA took place. 1200 μL of ice-cold ethanol (70%) was added to each tube to remove the free FARP by centrifugation at 4° C. and 12,000 g for 10 min. This washing step with 70% ice-cold ethanol was repeated two more times. After discarding the supernatant, the FARP-AP-DNA precipitate in the tube was dried at room temperature for 30 min. in a venting hood. The FARP-AP-DNA precipitate was hydrated and resuspended in 200 μL of phosphate buffer (10 mM, pH 9.0) at room temperature for 1 hr. The fluorescence intensity of the resultant FARP-AP-DNA solution was measured by the FluoroMax-2 spectrofluorometer. A calibration curve could be constructed by plotting the fluorescence intensity versus the concentration of AP sites.
One important application of the FARP AP-site assay developed is to screen MX-like compounds for their reactivity to AP site based on known chemical structures. In this work, four compounds with aminooxy or hydrazone group (i.e., MXL1O1, MXLIO2, MXLI 03, and MXL 104) together with MX were tested. The detail experiment included mixing equal concentration and volume of each individual test compound with FARP (50 μM in 100 μL of 10 mM phosphate buffer at pH 7.0) before reacting with 200 µL of 100 nM AP-DNA. The remaining experimental procedures were the same as described in the Experimental section. The data of fluorescence intensity reduced by MX and MX-like compounds were given in Table XI and the fluorescence intensity of the test compounds were compared in FIG. 19.

AP-DNA [2] = assay: Competitive reactions between FARP and MX with AP-DNA; conditions: for Fluorescence Intensity/10^4: 125 nM AP-DNA
Procedure: as §1
Since aminooxy and hydrazone nucleophiles can react with aldehyde group of AP site and form condensation product, it is desirable to know when MX and FARP compete with AP-DNA, which compound has greater reactivity toward AP-DNA. The finding of this experiment will lay the foundation of a screening assay for MX-like compounds.
In the study, the amount of AP-DNA used were 125 nM in 200 μL of 10 mM phosphate buffer at pH 7.0 and the ratios of [FARP]/[MX] were as follows: 50 μM FARP/0 μM, 50.0 μM/5 μM, 50.0 μM/12.5 μM, 50.0 μM/16.7 μM, 50.0 μM/25.0 μM 50.0 μM/22.7 μM, 50.0 μM/25 μM, 50.0 μM/50.0 μM, 50.0 μM/100.0 μM, 50.0 μM/200.0 μM, 50.0 μM/500.0 μM in 100 μL of 10 mM phosphate buffer at pH 7.0. Because MX and FARP were competing for a limited amount of AP-DNA, and only FARP-AP-DNA was fluorescent, the reduced fluorescence intensity reflected the amount of MX binding to the AP sites. […] This is probably due to the molecular size of MX, which allows it to diffuse to faster to the AP-DNA than FARP molecule in aqueous solution.

AP-DNA [3] = assay: Reversibility study of the condensation reaction between FARP / MX and AP-DNA; conditions: for Fluorescence Intensity, FARP Reaction Followed MX Reaction: FARP-AP-DNA incubated with 50 μM MX; for Fluorescence Intensity, MX Replacement Followed by FARP Replacement: MX-AP-DNA incubated with 50 μM FARP
Procedure: It was known that the aldehyde group of an AP site could easily condense with aminooxy or hydrazone nucleophiles. However, the reversibility of the reaction was not clear, especially in the presence of another competing nucleophile. To clarify the above, two experiments were designed and carried out as follows: (a) FARP (50 μM in 100 μL of 10 mM phosphate buffer at pH 7.0) reacted with AP-DNA (125 nM in 200 μL of 10 mM phosphate buffer at pH 7.0) for 1 hr, after washing the condensation product (FARP-AP-DNA) incubated with MX (50 μM in 100 μL of 10 mM phosphate buffer at pH 7.0) for various time periods; and (b) MX (50 μM in 100 μL of 10 mM phosphate buffer at pH 7.0) reacted with AP-DNA (125 nM, 200 μL) for 1 hr, after washing the condensation product (MX-AP-DNA) incubated with FARP (50 μM in 100 μL of 10 mM phosphate buffer at pH 7.0) for various time periods.

AP-DNA [4] = assay: Competitive reactions between FARP and MX with AP-DNA; conditions: [FARP]/[MX] 50.0 μM/20.0 μM, 125 nM AP-DNA
[5] = test compound mixed with FARP at equal concentration and volume (50 μM in 100 μL, pH 7.0), 100 nM AP-DNA

**Q.** With CON [MX, methoxyamine] as the compound, how does the “Normalized Fluorescence Intensity %” value (AP-DNA [1]; relative to FARP alone = 100, equal concentration of test compound and FARP, 100 nM AP-DNA) read?
**A.** The value was 37.3%.

**Q.** What about the “reactivity toward AP-DNA compared with FARP” value (AP-DNA [1]; result in words) of the same compound?
**A.** The value was “higher reactivity than FARP”.

**Q.** What about the “Fluorescence Intensity Individual Measurement” value (AP-DNA [1]; [5]) of the same compound?
**A.** Its value is 6543.0 and 6137.0.

**Q.** What about the “Fluorescence Intensity Mean” value (AP-DNA [1]; [5]) of the same compound?
**A.** The value was 6340.0.

**Q.** What about the “Fluorescence Intensity/10^4” value (AP-DNA [2]; [FARP]/[MX] 50.0 μM/5.0 μM) of the same compound?
**A.** The value was 8.9453.

**Q.** What about the “Fluorescence Intensity/10^4” value (AP-DNA [2]; [FARP]/[MX] 50.0 μM/12.5 μM) of the same compound?
**A.** Its value is 8.3567.

**Q.** And the “Fluorescence Intensity/10^4” value (AP-DNA [2]; [FARP]/[MX] 50.0 μM/16.7 μM)?
**A.** Its value is 7.6453.

**Q.** And the “Fluorescence Intensity/10^4” value (AP-DNA [2]; [FARP]/[MX] 50.0 μM/22.7 μM)?
**A.** The value was 3.8976.

**Q.** What about the “Fluorescence Intensity/10^4” value (AP-DNA [2]; [FARP]/[MX] 50.0 μM/25.0 μM) of the same compound?
**A.** The value was 3.2452.

**Q.** And the “Fluorescence Intensity/10^4” value (AP-DNA [2]; [FARP]/[MX] 50.0 μM/50.0 μM)?
**A.** Its value is 2.587.

**Q.** And the “Fluorescence Intensity/10^4” value (AP-DNA [2]; [FARP]/[MX] 50.0 μM/100.0 μM)?
**A.** The value was 2.348.

**Q.** What about the “Fluorescence Intensity/10^4” value (AP-DNA [2]; [FARP]/[MX] 50.0 μM/200.0 μM) of the same compound?
**A.** Its value is 2.2876.

**Q.** And the “Fluorescence Intensity/10^4” value (AP-DNA [2]; [FARP]/[MX] 50.0 μM/500.0 μM)?
**A.** The value was 2.0896.

**Q.** What about the “affinity toward AP-DNA compared with FARP” value (AP-DNA [2]; result in words) of the same compound?
**A.** The value was “greater affinity toward APDNA than that of FARP”.

**Q.** What about the “Fluorescence Intensity, FARP Reaction Followed MX Reaction” value (AP-DNA [3]; replacement time 10 min) of the same compound?
**A.** The value was 11,003.

**Q.** And the “Fluorescence Intensity, FARP Reaction Followed MX Reaction” value (AP-DNA [3]; replacement time 20 min)?
**A.** Its value is 11,289.

**Q.** What about the “Fluorescence Intensity, FARP Reaction Followed MX Reaction” value (AP-DNA [3]; replacement time 30 min) of the same compound?
**A.** Its value is 10,759.

**Q.** What about the “Fluorescence Intensity, FARP Reaction Followed MX Reaction” value (AP-DNA [3]; replacement time 40 min) of the same compound?
**A.** The value was 11,193.

**Q.** And the “Fluorescence Intensity, FARP Reaction Followed MX Reaction” value (AP-DNA [3]; replacement time 50 min)?
**A.** Its value is 11,226.

**Q.** And the “Fluorescence Intensity, FARP Reaction Followed MX Reaction” value (AP-DNA [3]; replacement time 60 min)?
**A.** Its value is 11,139.

**Q.** And the “Fluorescence Intensity, FARP Reaction Followed MX Reaction” value (AP-DNA [3]; replacement time 90 min)?
**A.** Its value is 11,112.

**Q.** And the “Fluorescence Intensity, FARP Reaction Followed MX Reaction” value (AP-DNA [3]; replacement time 120 min)?
**A.** Its value is 11,145.

**Q.** And the “Fluorescence Intensity, MX Replacement Followed by FARP Replacement” value (shortened to “Fluorescence Intensity … by FARP Replacement”) (AP-DNA [3]; replacement time 10 min)?
**A.** Its value is 3,366.

**Q.** And the “Fluorescence Intensity … by FARP Replacement” value (AP-DNA [3]; replacement time 20 min)?
**A.** Its value is 3,225.

**Q.** What about the “Fluorescence Intensity … by FARP Replacement” value (AP-DNA [3]; replacement time 30 min) of the same compound?
**A.** The value was 3,557.

**Q.** And the “Fluorescence Intensity … by FARP Replacement” value (AP-DNA [3]; replacement time 40 min)?
**A.** The value was 3,410.

**Q.** What about the “Fluorescence Intensity … by FARP Replacement” value (AP-DNA [3]; replacement time 50 min) of the same compound?
**A.** The value was 3,321.

**Q.** What about the “Fluorescence Intensity … by FARP Replacement” value (AP-DNA [3]; replacement time 60 min) of the same compound?
**A.** Its value is 3,192.

**Q.** What about the “Fluorescence Intensity … by FARP Replacement” value (AP-DNA [3]; replacement time 90 min) of the same compound?
**A.** The value was 3,202.

**Q.** And the “Fluorescence Intensity … by FARP Replacement” value (AP-DNA [3]; replacement time 120 min)?
**A.** The value was 3,081.

**Q.** What about the “reversibility of the condensation reaction with aldehyde group of AP-DNA” value (AP-DNA [3]; result in words, under the assay conditions) of the same compound?
**A.** Its value is “irreversible”.

**Q.** And the “Fluorescence Intensity/10^4” value (AP-DNA [4])?
**A.** The value was 5.6423.
